Numbered stars: 1 amine (or outer) side, 2 acyl side, 3 side chain; on linkers, the order of the positions; unused ones are H or OH. Side chains are listed from the residue outwards. Peptide text beside a SMILES is read from it. * marks the point of attachment. C18 diacid = O=C(O)CCCCCCCCCCCCCCCCC(=O)*; γGlu = O=C(O)[C@H](CCC(=O)[*:2])N[*:1]; Fumaroyl = O=C(O)/C=C/C(=O)*; Lauroyl = CCCCCCCCCCCC(=O)*; AEEA = NCCOCCOCC(=O)O
Tests used:
mouse ETB receptor = biological target: T1, mouse ETB receptor (Mus musculus, UniProt P48302); test: Determination of EC50s of polypeptides against mouse ETB receptor; type: cell-based; details: Table 9, mouse ETB receptor; read-out: DETAR Agonist Activity EC50
T1 construct: expressed in transfected cells
T1 sequence (P48302 27-442): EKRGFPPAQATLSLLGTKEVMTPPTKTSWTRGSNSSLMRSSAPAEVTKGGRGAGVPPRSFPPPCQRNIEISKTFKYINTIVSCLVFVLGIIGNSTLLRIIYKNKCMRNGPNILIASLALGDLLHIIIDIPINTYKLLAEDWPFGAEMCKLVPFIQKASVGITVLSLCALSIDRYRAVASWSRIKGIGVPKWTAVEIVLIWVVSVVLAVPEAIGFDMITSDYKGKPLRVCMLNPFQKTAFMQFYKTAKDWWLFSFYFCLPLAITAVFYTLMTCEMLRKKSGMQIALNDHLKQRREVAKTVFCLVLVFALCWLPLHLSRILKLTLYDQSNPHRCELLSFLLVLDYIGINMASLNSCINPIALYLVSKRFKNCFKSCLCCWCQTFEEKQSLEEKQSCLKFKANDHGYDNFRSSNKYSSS

rat model of pMACO = test: Foot fault test in rat model of pMACO; type: in vivo, SD rats
Text: Male SD rats weighing 280-300 g were used and acclimated for at least 3 days. Focal cerebral ischemia was induced by middle cerebral artery occlusion with a suture method under isoflurane anesthesia. The animals were placed in a secure supine position, and a midline incision was made to expose the right common carotid artery, external carotid artery, and internal carotid artery. A 4.0 monofilament nylon suture was advanced from the external carotid artery toward the internal carotid artery lumen until resistance was felt ( ~ 20 mm), indicating middle cerebral artery occlusion. The nylon filament was allowed to stay in place to create a permanent model of focal cerebral ischemia. Successfully modeled rats were randomly assigned to four groups: a solvent (normal saline) group (n=10), a 7 µg/Kg BX-34 group (n=10), a 5 µg/Kg BX-48 group (n=10), and a 5 µg/Kg IRL1620 group (n=10). Each group was administered once at 2 hours, 4 hours, and 6 hours, respectively, after modeling, for a total of three administrations. Grip strength was measured before administration and at 24 hours and on D3 and D7 after administration. A rotarod test and a foot fault test were performed before administration and at 24 hours and day 7 after administration. During the rotarod test, time and distance were recorded, and ratios of the measurement at 24 hours and the measurement at D7 to the pretest measurement were used as analysis indicators. The specific method for the foot fault test was as follows. The rats were placed on an elevated grid floor (29×29 cm, grid opening: 3 cm^2) for 2 minutes, and the number of foot faults (when a forelimb fell through the grid) and the total steps were recorded. % Foot fault = (the number of forelimb faults/the total number of forelimb steps) × 100.

Structure (SMILES)	EC50 (mouse ETB receptor) [nM]	percentages of foot faults compared with the saline group and the IRL1620 group (rat model of pMACO; pMACO rats, BX-34 7 µg/Kg, BX-48 5 µg/Kg, three administrations)	Foot fault Analysis Mean of 7D (rat model of pMACO; percentage of foot faults at 7D, IRL1620 5 µg/Kg, BX34 7 µg/Kg, BX48 5 µg/Kg, administered 3 times (2, 4, 6 hours after modeling))	Foot fault Analysis Mean of 24h (rat model of pMACO; percentage of foot faults at 24h, IRL1620 5 µg/Kg, BX34 7 µg/Kg, BX48 5 µg/Kg, administered 3 times (2, 4, 6 hours after modeling))	Foot fault Analysis Mean of Pretest (rat model of pMACO; percentage of foot faults, pretest (baseline before administration), groups IRL1620 5 µg/Kg, BX34 7 µg/Kg, BX48 5 µg/Kg, 3 times)
CCCCCCCCCCCC(=O)N[C@@H](CCC(=O)NCCOCCOCC(=O)NCCCC[C@H](NC(=O)[C@H](Cc1c[nH]cn1)NC(=O)[C@H](C)NC(=O)[C@H](Cc1ccccc1)NC(=O)[C@H](Cc1ccc(O)cc1)NC(=O)[C@@H](NC(=O)[C@H](C)NC(=O)[C@H](CCC(=O)O)NC(=O)[C@H](CCC(=O)O)NC(=O)[C@H](CC(=O)O)NC(=O)/C=C/C(=O)O)C(C)C)C(=O)N[C@@H](CC(=O)O)C(=O)N[C@H](C(=O)N[C@H](C(=O)N[C@@H](Cc1c[nH]c2ccccc12)C(=O)O)[C@@H](C)CC)C(C)C)C(=O)O [BX229-Na] (Fumaroyl-DEEAVYFAHK([AEEA-γGlu-Lauroyl])DVIW-OH)	9.05				
CC[C@H](C)[C@H](NC(=O)[C@H](CC(=O)O)NC(=O)[C@H](CCCCNC(=O)COCCOCCNC(=O)COCCOCCNC(=O)CC[C@H](NC(=O)CCCCCCCCCCCCCCCCC(=O)O)C(=O)O)NC(=O)[C@H](Cc1c[nH]cn1)NC(=O)[C@H](C)NC(=O)[C@H](Cc1ccccc1)NC(=O)[C@H](Cc1ccc(O)cc1)NC(=O)[C@@H](NC(=O)[C@H](C)NC(=O)[C@H](CCC(=O)O)NC(=O)[C@H](CCC(=O)O)NC(=O)[C@H](CC(=O)O)NC(=O)/C=C/C(=O)O)C(C)C)C(=O)N[C@H](C(=O)N[C@@H](Cc1c[nH]c2ccccc12)C(=O)O)[C@@H](C)CC [BX-34] (Fumaroyl-DEEAVYFAHK([AEEA-AEEA-γGlu-C18 diacid])DIIW-OH)		lower	3.46%±2.92%	10.64%±15.53%	1%±1%

Source: EP4702986A1, “POLYPEPTIDE AND USE THEREOF” (Biocells (Beijing) Biotech Co., Ltd., priority 2023, dated 2024)
